Experimental data as given in paper PMC10257182, “Discovery of senolytics using machine learning” (Nature Communications, 2023).
Like-named read-outs stand apart in the source and are kept apart here.

Key:
Assay type in all cases: cell-based, human
[1] = system: senescent A549 cells (etoposide-induced); experiment: Nuclei count senolytic assay, therapy-induced senescence (TIS) model, senescent cells; conditions: Homo sapiens, A549, Senescent cells, mean, read-out: Mean % Cell Survival
In short: (§1)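 Etoposide 100 μM, 48 h, + 3 d standard media → senescent A549; untreated A549 = controls. 24 h post-seeding, cpds 10 nM–10 μM final, 10-pt […], 72 h, n=3. Fix formaldehyde, permeabilise Triton-X100, Hoechst 2 μg/ml, image, count nuclei.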

[2] = system: senescent IMR90 ER:RAS cells (4-OHT-induced); experiment: Nuclei count (Hoechst, high content imaging) senolytic assay, oncogene-induced senescence (OIS) model, senescent cells; conditions: Homo sapiens
Description: To test for senolytic activity, we compared the effect of each compound on the total cell number (automated high content image-based analysis of total number of nuclei per well) in non-senescent and senescent IMR90 ER:RAS cultures treated with the top hits from the computational screen (Figs. 2e and 3a–d and Supplementary Fig. 4a–c). The drop in cell number compared to untreated controls is indicated by the nuclei count and reflects cell death[13],[15]. As positive control, we employed ouabain, a cardiac glycoside with well characterised senolytic activity.
We performed experimental validation of the compounds with z-score > 8 (Fig. 2e). […] We employed two cellular models of senescence: one of OIS and a second one of TIS. For the OIS case, we utilised IMR90 ER:RAS cells with 4-OHT at 100 nM. […] For the TIS model, we used A549 cells with etoposide at 100 μM. The exposure of the cells to etoposide lasted 48 h, after which period the cells were cultivated for a further three days with normal media.
IMR90 (CCL-186) human foetal lung fibroblasts and A549 (CCL-185) human lung adenocarcinoma cells were obtained from the American Type Culture Collection (ATCC, Manassas, VA). The cell lines were confirmed to be mycoplasma negative (Lonza MycoAlert, cat #LT07-118). IMR90 ER:RAS is a derivative of IMR90 cells expressing a switchable version of oncogenic H-Ras[84]. IMR90 ER:RAS and A549 cells were maintained in Dulbecco’s Modified Eagle Medium (DMEM, ThermoFisher) supplemented with foetal bovine serum (10%), L-glutamine (2 mM, ThermoFisher), and antibiotic-antimycotic solution (1%, ThermoFisher) and incubated under standard tissue culture conditions (37 °C and 5% CO2). For induction of the senescent phenotype, IMR90-ER:RAS cells were cultured in hydroxytamoxifen (4-OHT) (Sigma) added media at 100 nM final concentration. IMR90 were kept in culture for over 27 passages for replicative senescence. Cells were tested for mycoplasma on a regular basis.
Cells were seeded (50 μL per well) into 384-well plates (IMR90 ER:RAS cells in Nunc Optical Bottom Polybase Microplates [#142761, Thermo Scientific, Rochester, NY] and A549 cells in CELLSTAR Cell Culture Microplates [#781091, Greiner Bio-One, Kremsmünster, Austria]). Cells were incubated under standard tissue culture conditions for 24 h before the addition of compounds. Passage 14 IMR90 ER:RAS cells were seeded at 1300 cells per well in the control condition, and at 1600 cells per well in the senescent case. Passage 34 A549 cells were seeded at 7000 cells per well in the control condition, and at 10,000 cells per well in the senescent case.
Dose response plates were prepared with a DMSO control and a 10-point […] concentration range, and added to the compounds using a D300e digital dispenser (Tecan Trading AG, Switzerland) at a final concentration of between 10 μM and 10 nM. Every screened condition was carried out in triplicate. After 72 h of incubation with exposure to the compounds, cells were fixed by the addition of an equal volume of formaldehyde (8%, 50 μL; #BP531-500, Fisher Bioreagents, Fisher Scientific, Loughborough, Leicestershire) to the existing media, incubated at room temperature (30 min), and washed three times in phosphate-buffered saline (PBS). Cells were then permeabilised in Triton-X100 (0.1%, 50 μL) and incubated at room temperature (30 min) followed by three more washes with PBS.
Cells were stained with Hoechst 33342 for nuclei count (excitation/emission wavelength at 387/447 […], DAPI channel, original concentration at 10 mg/ml, final concentration at 2 μg/ml; H1399, Molecular Probes, Eugene, OR). The staining solution was prepared in bovine serum albumin solution (10%). The staining solution was added to each well (30 μL) and incubated in the dark at room temperature (30 min), followed by three washes with PBS and no final aspiration. Plates were foil sealed.

[3] = system: non-senescent control A549 cells; experiment: Nuclei count senolytic assay, TIS model, non-senescent control cells; conditions: Homo sapiens, A549, Control cells, mean, read-out: Mean % Cell Survival
In short: as §1

Structure (SMILES): CO[C@H]1C[C@@H]2CC[C@@H](C)[C@@](O)(O2)C(=O)C(=O)N2CCCC[C@H]2C(=O)O[C@H]([C@H](C)C[C@@H]2CC[C@@H](OCCO)[C@H](OC)C2)CC(=O)[C@H](C)/C=C(\C)[C@@H](O)[C@@H](OC)C(=O)[C@H](C)C[C@H](C)/C=C/C=C/C=C/1C [Everolimus, everolimus, reference compound]
- viability at 10 µM ([1]; log (dose) [M] -5): 71.7%
- viability at 4.68 µM ([1]; log (dose) [M] -5.33): 84.3%
- viability at 2.19 µM ([1]; log (dose) [M] -5.66): 79.6%
- viability at 1 µM ([1]; log (dose) [M] -6): 66.9%
- viability at 0.468 µM ([1]; log (dose) [M] -6.33): 72.1%
- viability at 0.219 µM ([1]; log (dose) [M] -6.66): 74.4%
- viability at 0.1 µM ([1]; log (dose) [M] -7): 76.2%
- viability at 0.0468 µM ([1]; log (dose) [M] -7.33): 85.6%
- viability at 0.0219 µM ([1]; log (dose) [M] -7.66): 95%
- viability at 0.01 µM ([1]; log (dose) [M] -8): 94.7%
- viability at 10 µM ([2]; IMR-90, 72 h, Senescent, log (dose) [M] -5, 72 h, mean n=3 (Fig 3C), read-out: Mean % Cell Survival): 82.2%
- viability at 4.677 µM ([2]; IMR-90, 72 h, Senescent, log (dose) [M] -5.33, 72 h, mean n=3 (Fig 3C), read-out: Mean % Cell Survival): 80%
- viability at 2.188 µM ([2]; IMR-90, 72 h, Senescent, log (dose) [M] -5.66, 72 h, mean n=3 (Fig 3C), read-out: Mean % Cell Survival): 87.3%
- viability at 1 µM ([2]; IMR-90, 72 h, Senescent, log (dose) [M] -6, 72 h, mean n=3 (Fig 3C), read-out: Mean % Cell Survival): 92.8%
- viability at 0.4677 µM ([2]; IMR-90, 72 h, Senescent, log (dose) [M] -6.33, 72 h, mean n=3 (Fig 3C), read-out: Mean % Cell Survival): 92.3%
- viability at 0.2188 µM ([2]; IMR-90, 72 h, Senescent, log (dose) [M] -6.66, 72 h, mean n=3 (Fig 3C), read-out: Mean % Cell Survival): 92.6%
- viability at 0.1 µM ([2]; IMR-90, 72 h, Senescent, log (dose) [M] -7, 72 h, mean n=3 (Fig 3C), read-out: Mean % Cell Survival): 93.7%
- viability at 0.04677 µM ([2]; IMR-90, 72 h, Senescent, log (dose) [M] -7.33, 72 h, mean n=3 (Fig 3C), read-out: Mean % Cell Survival): 88.2%
- viability at 0.02188 µM ([2]; IMR-90, 72 h, Senescent, log (dose) [M] -7.66, 72 h, mean n=3 (Fig 3C), read-out: Mean % Cell Survival): 90.5%
- viability at 0.01 µM ([2]; IMR-90, 72 h, Senescent, log (dose) [M] -8, 72 h, mean n=3 (Fig 3C), read-out: Mean % Cell Survival): 93.7%
- viability at 10 µM ([2]; IMR-90, Senescent, log (dose) [M] -5, read-out: % Cell Survival): 67.8%
- viability at 4.677 µM ([2]; IMR-90, Senescent, log (dose) [M] -5.33, read-out: % Cell Survival): 92.4%
- viability at 2.188 µM ([2]; IMR-90, Senescent, log (dose) [M] -5.66, read-out: % Cell Survival): 80%
- viability at 0.2188 µM ([2]; IMR-90, Senescent, log (dose) [M] -6.66, read-out: % Cell Survival): 80.7%
- viability at 0.1 µM ([2]; IMR-90, Senescent, log (dose) [M] -7, read-out: % Cell Survival): 80.3%
- viability at 10 µM ([3]; log (dose) [M] -5): 106%
- viability at 4.68 µM ([3]; log (dose) [M] -5.33): 103%
- viability at 2.19 µM ([3]; log (dose) [M] -5.66): 103%
- viability at 1 µM ([3]; log (dose) [M] -6): 102%
- viability at 0.468 µM ([3]; log (dose) [M] -6.33): 67.5%
- viability at 0.219 µM ([3]; log (dose) [M] -6.66): 103%
- viability at 0.1 µM ([3]; log (dose) [M] -7): 102%
- viability at 0.0468 µM ([3]; log (dose) [M] -7.33): 106%
- viability at 0.0219 µM ([3]; log (dose) [M] -7.66): 105%
- viability at 0.01 µM ([3]; log (dose) [M] -8): 108%
